Experimental data reported in ChEMBL document CHEMBL1201862, “PubChem BioAssay data set” (2004).
One block for each compound: values may come before it. Active and inactive are the calls of the source.

Legend:
[1] = target: 5-hydroxytryptamine receptor 2A (Mus musculus, UniProt P35363); format: functional, cell-based;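 also: CHO-K1 cells with tagged receptor and beta-arrestin; agonist potency measured as compound-induced activation of the receptor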
Mu-type opioid receptor = Mu-type opioid receptor (Homo sapiens, UniProt P35372); format: functional, cell-based;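 also: U2OS cells with beta-arrestin recruitment to OPRM1 by beta-gal complementation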
[2] = HEK293 cell viability, dose response, counter-screen for EBV LMP1 inhibitor project, dry powder, set 2 (AID 624374); format: functional
[3] = LGR2 antagonists, dose response, cell-based, HEK293, CRE-luciferase reporter, cherry pick, set 2 (AID 743343); format: functional;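 also: transfected cells were stimulated with diluted bursicon conditioned medium after compound addition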
INS1 = test: beta cell apoptosis inhibitors, cytokine rescue, dose response, luminescence, retest (AID 449756); format: functional, cell-based; settings: Rattus norvegicus;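 also: cell death triggered by IL-1 beta plus TNF-alpha plus IFN-gamma mixture; protective hits raise ATP signal compared with cytokine alone wells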
[4] = HEK293 cell cytotoxicity, dose response, cytotoxicity control, plate reader, cherry-picked samples (AID 743446); format: functional, cell-based
[5] = target: T1, DNA repair protein RAD52 homolog (Homo sapiens, UniProt P43351); format: functional, biochemical
T1 sequence (P43351 whole entry): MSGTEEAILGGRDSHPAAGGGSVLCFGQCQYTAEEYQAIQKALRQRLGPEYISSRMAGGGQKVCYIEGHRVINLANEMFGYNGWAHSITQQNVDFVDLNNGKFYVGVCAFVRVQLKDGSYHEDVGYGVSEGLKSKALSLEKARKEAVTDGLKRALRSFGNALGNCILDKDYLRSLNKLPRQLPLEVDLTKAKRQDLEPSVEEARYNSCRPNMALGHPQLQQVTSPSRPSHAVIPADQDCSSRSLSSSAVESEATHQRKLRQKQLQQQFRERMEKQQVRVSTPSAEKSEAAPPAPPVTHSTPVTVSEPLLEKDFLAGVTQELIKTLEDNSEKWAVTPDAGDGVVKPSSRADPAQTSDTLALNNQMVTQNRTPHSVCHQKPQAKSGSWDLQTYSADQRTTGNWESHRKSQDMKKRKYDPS

[6] = MC4R antagonists, dose response, counter-screen for LGR2 antagonist project, cell-based, plate reader, cherry pick (AID 743444); format: functional;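 also: transfected HEK 293 cells stimulated with alpha-MSH peptide; potency of inhibitors of the alpha-MSH evoked signal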
[7] = target: SWI/SNF-related matrix-associated actin-dependent regulator of chromatin subfamily A member 2 (Homo sapiens, UniProt P51531); test: Luminescence-based cell-based high throughput dose response assay to identify activators of the function of SWI/SNF related, matrix associated, actin dependent regulator of chromatin, subfamily a, member 2 (SMARCA2, BRM).; format: functional
[8] = Counterscreen for activators of the function of SWI/SNF related, matrix associated, actin dependent regulator of chromatin, subfamily a, member 2 (SMARCA2, BRM): Luminescence-based cell-based high throughput dose response assay to identify non-selective compounds using the VP16 reporter assay.; format: functional
[9] = HepG2 cell cytotoxicity, dose response, cytotoxicity control, plate reader, cherry-pick, antagonist series (AID 743416); format: functional, cell-based
[10] = A549 cell cytotoxicity, dose response, cytotoxicity control, plate reader, cherry-pick, antagonist series (AID 743412); format: functional, cell-based
[11] = target: Disintegrin and metalloproteinase domain-containing protein 17 (Homo sapiens, UniProt P78536); test: exosite inhibitors of ADAM17, dose response, biochemical (AID 743260)
[12] = ADAM10 protease inhibitors, dose response, selectivity assay for ADAM17 exosite inhibitor project, biochemical, FRET peptide substrate, recombinant human ADAM10 (AID 743259);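 also: ADAM10 enzyme cleaving a FRET peptide substrate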
HeLa = test: HeLa cell cytotoxicity, dose response, cytotoxicity control, ATP luminescence, cherry-pick samples (AID 687004); format: functional, cell-based; settings: Homo sapiens
[13] = Jurkat T cell cytotoxicity, dose response, cytotoxicity control for P. falciparum gametocyte viability project, luminescence (AID 1117277); format: functional, cell-based;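 also: potency reflects loss of cellular ATP meaning fewer viable cells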
[14] = P. falciparum late gametocyte killing, dose response, luminescence (AID 1117278); format: functional, cell-based;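 also: gametocytes exposed to compound for 24 hours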
[15] = Luminescence Cell-Based Dose Retest to Confirm Inhibitors of Cancer Stem Cells. [Related pubchem assays (depositor defined):AID2717, AID2721]; format: functional; settings: Homo sapiens
Paired box protein Pax-8 = Paired box protein Pax-8 (Homo sapiens, UniProt Q06710); test: inhibitors of PAX8-driven TPO luciferase reporter, dose response, RMG-I cells, cherry-pick (AID 687027); format: functional, cell-based;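 also: luciferase reporter driven by Pax8 target thyroperoxidase promoter measured by SteadyGlo luminescence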
[16] = inhibitors of PGC1a acetylation in cells, dose response, cell-based, cherry-picked samples (AID 720514); format: functional;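 also: potency may reflect raised or lowered acetylation signal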
[17] = cytotoxicity in OVCAR8 ovarian cancer cells, dose response, PAX8 project, cell-based, plate reader, dry powder samples (AID 743197); format: functional; settings: OVCAR-8

Sequence of Disintegrin and metalloproteinase domain-containing protein 17 (P78536 whole entry, the tested form may be a part): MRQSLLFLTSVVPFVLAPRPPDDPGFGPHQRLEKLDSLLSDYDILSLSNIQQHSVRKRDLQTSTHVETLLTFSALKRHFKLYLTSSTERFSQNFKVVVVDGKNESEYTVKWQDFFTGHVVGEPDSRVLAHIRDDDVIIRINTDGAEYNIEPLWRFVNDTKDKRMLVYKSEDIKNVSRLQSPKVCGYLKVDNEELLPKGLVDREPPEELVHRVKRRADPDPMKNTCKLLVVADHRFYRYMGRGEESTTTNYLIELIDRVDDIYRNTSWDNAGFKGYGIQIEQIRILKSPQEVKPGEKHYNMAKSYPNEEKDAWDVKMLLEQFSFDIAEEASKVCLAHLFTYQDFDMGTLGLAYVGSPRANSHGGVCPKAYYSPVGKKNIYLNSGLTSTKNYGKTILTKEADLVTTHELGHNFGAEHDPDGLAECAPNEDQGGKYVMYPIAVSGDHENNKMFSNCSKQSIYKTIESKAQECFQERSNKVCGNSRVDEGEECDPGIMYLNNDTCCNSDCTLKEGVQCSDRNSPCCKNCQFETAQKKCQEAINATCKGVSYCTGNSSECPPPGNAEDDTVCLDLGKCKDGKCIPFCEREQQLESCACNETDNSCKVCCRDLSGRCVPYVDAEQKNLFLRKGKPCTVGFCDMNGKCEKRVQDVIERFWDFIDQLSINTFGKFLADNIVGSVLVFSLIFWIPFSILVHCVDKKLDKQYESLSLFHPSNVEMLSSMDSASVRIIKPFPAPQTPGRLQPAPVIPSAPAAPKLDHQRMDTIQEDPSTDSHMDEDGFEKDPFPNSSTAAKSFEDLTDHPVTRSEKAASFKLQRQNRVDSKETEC
Sequence of Mu-type opioid receptor (P35372 whole entry): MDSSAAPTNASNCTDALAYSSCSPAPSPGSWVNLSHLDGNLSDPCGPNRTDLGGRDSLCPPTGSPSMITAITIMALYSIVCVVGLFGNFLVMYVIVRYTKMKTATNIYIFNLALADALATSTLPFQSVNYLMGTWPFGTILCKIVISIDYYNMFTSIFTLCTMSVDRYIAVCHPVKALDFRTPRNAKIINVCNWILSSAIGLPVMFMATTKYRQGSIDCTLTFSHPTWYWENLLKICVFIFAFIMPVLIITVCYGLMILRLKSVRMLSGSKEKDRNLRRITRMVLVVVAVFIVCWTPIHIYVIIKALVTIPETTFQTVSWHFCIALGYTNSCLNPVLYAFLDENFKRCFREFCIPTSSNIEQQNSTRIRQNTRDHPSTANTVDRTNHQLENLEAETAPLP
Sequence of 5-hydroxytryptamine receptor 2A (P35363 whole entry): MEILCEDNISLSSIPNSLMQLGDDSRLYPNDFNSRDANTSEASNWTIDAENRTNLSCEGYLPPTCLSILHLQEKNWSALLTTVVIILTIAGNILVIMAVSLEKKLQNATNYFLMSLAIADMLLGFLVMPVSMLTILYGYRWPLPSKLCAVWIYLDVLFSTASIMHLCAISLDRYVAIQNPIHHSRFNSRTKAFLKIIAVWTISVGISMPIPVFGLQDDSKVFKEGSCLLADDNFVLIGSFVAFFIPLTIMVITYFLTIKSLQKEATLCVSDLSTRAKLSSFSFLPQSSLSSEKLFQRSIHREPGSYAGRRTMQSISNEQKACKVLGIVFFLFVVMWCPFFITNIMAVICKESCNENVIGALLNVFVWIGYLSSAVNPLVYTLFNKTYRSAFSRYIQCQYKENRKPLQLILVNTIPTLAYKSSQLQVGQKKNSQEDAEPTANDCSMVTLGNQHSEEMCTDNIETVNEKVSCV
Sequence of Paired box protein Pax-8 (Q06710 whole entry): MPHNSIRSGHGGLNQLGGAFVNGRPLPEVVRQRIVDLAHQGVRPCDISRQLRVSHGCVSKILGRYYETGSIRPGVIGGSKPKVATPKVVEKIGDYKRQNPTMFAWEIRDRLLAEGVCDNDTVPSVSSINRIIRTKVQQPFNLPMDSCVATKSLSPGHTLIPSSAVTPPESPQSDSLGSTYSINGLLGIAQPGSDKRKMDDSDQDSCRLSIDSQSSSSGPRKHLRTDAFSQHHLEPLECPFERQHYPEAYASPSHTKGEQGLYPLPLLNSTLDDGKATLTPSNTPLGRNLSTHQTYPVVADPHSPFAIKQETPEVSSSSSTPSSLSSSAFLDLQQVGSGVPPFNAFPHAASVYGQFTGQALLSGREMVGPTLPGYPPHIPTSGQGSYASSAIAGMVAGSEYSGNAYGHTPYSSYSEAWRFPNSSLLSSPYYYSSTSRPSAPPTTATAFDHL
Sequence of SWI/SNF-related matrix-associated actin-dependent regulator of chromatin subfamily A member 2 (P51531 whole entry): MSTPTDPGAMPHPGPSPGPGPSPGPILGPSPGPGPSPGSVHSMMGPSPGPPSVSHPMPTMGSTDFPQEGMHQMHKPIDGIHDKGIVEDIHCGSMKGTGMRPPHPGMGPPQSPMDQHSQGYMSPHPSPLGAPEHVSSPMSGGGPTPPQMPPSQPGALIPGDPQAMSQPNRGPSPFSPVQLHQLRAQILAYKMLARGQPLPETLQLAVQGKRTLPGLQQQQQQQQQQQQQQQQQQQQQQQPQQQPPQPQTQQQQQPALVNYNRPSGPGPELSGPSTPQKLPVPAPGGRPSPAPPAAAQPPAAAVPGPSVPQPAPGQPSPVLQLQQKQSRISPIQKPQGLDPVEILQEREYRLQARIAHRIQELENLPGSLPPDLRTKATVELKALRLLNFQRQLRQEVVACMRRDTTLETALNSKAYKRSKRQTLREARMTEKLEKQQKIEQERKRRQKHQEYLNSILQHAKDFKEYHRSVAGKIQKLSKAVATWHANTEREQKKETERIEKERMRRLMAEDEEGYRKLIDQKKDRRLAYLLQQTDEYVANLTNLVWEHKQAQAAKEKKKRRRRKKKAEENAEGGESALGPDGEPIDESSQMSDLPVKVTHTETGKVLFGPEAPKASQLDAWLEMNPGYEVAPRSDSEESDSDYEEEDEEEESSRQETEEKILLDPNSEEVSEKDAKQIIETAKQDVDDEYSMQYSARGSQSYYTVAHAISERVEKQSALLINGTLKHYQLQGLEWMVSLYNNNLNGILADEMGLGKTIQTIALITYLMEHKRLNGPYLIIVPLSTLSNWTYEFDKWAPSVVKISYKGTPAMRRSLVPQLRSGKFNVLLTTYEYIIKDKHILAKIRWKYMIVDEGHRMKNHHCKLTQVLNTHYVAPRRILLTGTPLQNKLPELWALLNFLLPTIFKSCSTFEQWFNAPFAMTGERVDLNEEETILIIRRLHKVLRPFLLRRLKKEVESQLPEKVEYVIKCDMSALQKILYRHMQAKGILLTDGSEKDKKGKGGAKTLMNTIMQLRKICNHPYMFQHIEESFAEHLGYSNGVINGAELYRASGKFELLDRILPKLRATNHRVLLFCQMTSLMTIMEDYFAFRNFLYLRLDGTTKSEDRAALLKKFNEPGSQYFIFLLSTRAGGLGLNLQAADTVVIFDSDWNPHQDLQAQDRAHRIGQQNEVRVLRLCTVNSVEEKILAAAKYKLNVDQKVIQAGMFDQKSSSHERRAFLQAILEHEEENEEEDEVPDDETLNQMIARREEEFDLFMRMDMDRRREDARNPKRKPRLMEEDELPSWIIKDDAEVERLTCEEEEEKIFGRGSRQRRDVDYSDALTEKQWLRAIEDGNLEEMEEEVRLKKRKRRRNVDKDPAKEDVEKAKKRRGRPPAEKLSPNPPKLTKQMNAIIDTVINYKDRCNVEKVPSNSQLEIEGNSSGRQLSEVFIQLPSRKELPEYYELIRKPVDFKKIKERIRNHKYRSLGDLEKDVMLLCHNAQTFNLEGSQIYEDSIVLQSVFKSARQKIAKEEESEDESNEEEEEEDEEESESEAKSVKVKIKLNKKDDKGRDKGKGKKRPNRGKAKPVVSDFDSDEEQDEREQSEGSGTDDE

EC50 [1]: 4.33 µM (active)
EC50 (Mu-type opioid receptor): 92.5 µM (inactive)
Compound: CC(C)[C@H](NC(=O)c1ccc(C(C)(C)C)cc1)C(=O)N1CCN(Cc2ccc3c(c2)OCO3)CC1

Compound: C[C@H](NC(=O)C[C@H]1C=C[C@H](NC(=O)Cc2ccccn2)[C@H](CO)O1)c1ccccc1
AbsAC35 [2]: 200 µM

Compound: c1ccc2c(NCCCN3CCOCC3)c3ccccc3nc2c1
AC50 [3]: 21 µM (active)
AC50 (INS1): 2.33 µM (active)
AC50 [4]: 3.16 µM (active)
AC50 [5]: 1.06 µM (active)
AC50 [6]: 31.3 µM (active)
EC50 [7]: > 3.38 µM (active)
EC50 [8]: > 91.2 µM (inactive)
AC50 [9]: 3.54 µM (active)
AC50 [10]: 3.28 µM (active)

IC50 [11]: > 69.5 µM (inactive)
Compound: CCOC(=O)C1=CN(Cc2cccc(F)c2)S(=O)(=O)NC1c1ccc2ccccc2c1 (configuration not stated)
IC50 [12]: > 7.73 µM (active)

Compound: CC(C)CC#Cc1ccc2c(c1)O[C@@H](CN(C)C(=O)C1CCC1)[C@@H](C)CN([C@H](C)CO)S2(=O)=O
AC50 (HeLa): > 52 µM (inactive)

Compound: O=C(Nc1cccc(C(=O)N2CCOCC2)c1)c1ccccc1
IC50 [13]: > 83.3 µM (inactive)
IC50 [14]: > 109 µM (inactive)

Compound: O=S(=O)(c1ccccc1)N(CC(O)Cn1c2ccccc2c2ccccc21)c1ccccc1 (configuration not stated)
IC50 [11]: > 69.5 µM (inactive)
AC50 [15]: 3.66 µM (active)
IC50 [12]: > 69.5 µM (inactive)

Compound: C[C@@H]1CCCCO[C@H](CN(C)Cc2ccc(Cl)c(Cl)c2)[C@H](C)CN([C@@H](C)CO)C(=O)c2cc(NC(=O)Nc3ccc(F)cc3)ccc2O1
AC50 (Paired box protein Pax-8): 11.3 µM (active)
AC50 [16]: 14.3 µM (active)
AC50 [17]: 65.1 µM (active)

EC50 [1]: 17.2 µM (inactive)
EC50 (Mu-type opioid receptor): 92.5 µM (inactive)
Compound: COc1ccc(S(=O)(=O)NCC(c2ccc3c(c2)OCO3)N2CCN(c3ccccc3)CC2)cc1 (configuration not stated)

Compound: O=c1c2ccccc2ncn1CCCCOc1ccc(Br)cc1
IC50 [13]: > 83.3 µM (inactive)
IC50 [14]: > 109 µM (inactive)
